Entries after “also recorded” stand apart in the source; their conditions may differ.

Results on one sequence are retold here after US20050159362A1, “Mediators of reverse cholesterol transport for the treatment of hypercholesterolemia” (priority 2003, published 2005).

For series [1], the system named is C57BL/6J mice fed a cholate-containing high fat diet (HFC). Put plainly: Effect of single bolus injections of peptides on plasma lipoprotein profile. The series is classed as in vivo, mouse. As to the method: Effect of single bolus injections of peptides on plasma lipoprotein profile—To monitor effect of peptides on plasma cholesterol levels and its distribution among the different lipoprotein classes, the nonradioiodinated free peptides (100 μg in 100 μl of PBS) were injected intravenously into the tail vein of nonfasted C57BL/6J wild type mice, which have been placed on high fat cholate-containing diet four days prior to experiment. To control for the effect of external- and/or internal nonspecific factors (stress of handling, anesthetic, blood drawing) on plasma lipoprotein profile, a similar group of mice was injected with only PBS. Different groups of mice were sacrificed before and at various times after injections and blood was drawn by retroorbital puncture and subjected to low speed centrifugation at 4° C. to obtain the plasma. Plasma samples were obtained, combined within each group (4 mice), and subjected to gel filtration chromatography on a Superose 6 (HR 10/30 column, FPLC) to monitor cholesterol lipoproteins distribution and agarose gel electrophoresis (Paragon Systems) to monitor phospholipid lipoproteins distribution.
(§1) To monitor cholesterol distribution among the different lipoprotein classes, plasma samples were combined within each group (usually 4-6 mice per group), and subjected to FPLC size-exclusion chromatography on a Superose 6 (HR 10/30 column, Amersham-Pharmacia) using an isocratic 10 mM Tris/150 mM NaCl/1 mM EDTA buffer system at a flow rate of 0.15 ml/min. Fractions (0.15 ml) were collected into 96-well plates containing 0.055 ml of 1:1 mixture of 0.5% Triton X-100 and 20 mM Sodium Cholate. Total and free cholesterol in plasma fractions was determined by using the fluorescent method of W. Gamble, et al. (Gamble et al., 1978, Journal Lipid Res., 16: 1068-1070). 96-well plates were read on Dual-Scanning Microplate Spectrofluorometer Gemini XS (Molecular Devices). The areas under the lipoprotein peaks were quantified by using Unicorn software (Version 3.21.02). The amount of esterified cholesterol was assessed by subtraction of free cholesterol from total cholesterol.
Mice were divided into two groups—control and experimental. Each group contained 4 mice.
Effect of “frame-shift” derived peptides on lipoprotein metabolism (Single bolus injections)—We performed the functional frame-shift of the entire region of mouse apolipoprotein A1 where SEQ ID NO: 1 derived from (helix 6, Pro166-Pro188, precursor protein). Frame-shift was done in both directions (form N-to C- and from C- to N-Terminus). […] Mice were divided into two groups—control and experimental. Each group contained 4 mice. […] The data are expressed as percent of change of total cholesterol (TC) content of VLDL, IDL/LDL, and HDL classes in experimental mice relative to control (PBS injected) mice.
Effect of chemically modified derivatives of SEQ ID NO: 1 and peptides derived from other mouse apoA1 regions on mouse plasma lipoprotein profile (Single bolus injections)—To increase SEQ ID NO: 1 hydrophobicity, Phenyl Acetyl or Pivalic Acid were attached to N-Terminal Tyr residue of SEQ ID NO: 1, or Tyr residue was removed from N-terminus. […] Mice were divided into two groups—control and experimental. Each group contained 4 mice. […] The data are expressed as percent of change of total cholesterol (TC) content of VLDL, IDL/LDL, and HDL classes in experimental mice relative to control (PBS injected) mice.

Series [2] has as its system LDLR−/− mice and A-I−/− mice. The series can be described thus: Plasma clearance and tissue distribution of SEQ ID NO: 1-125I-LDL complexes. The format is in vivo, mouse. As to the method:
Plasma clearance and tissue distribution of SEQ ID NO: 1-LDL complexes—^125I-LDL (0.2 nmol) was incubated at 37° C. in PBS alone, or with 4 nmol of SEQ ID NO: 1. After 2 h, the mixture was dialyzed against PBS containing […] BHT. ^125I-LDL alone or SEQ ID NO: 1/^125I-LDL complex were injected intravenously into the tail vein of nonfasted mice under metofane anesthesia. Mice were bled at the certain time points after the injection by retroorbital bleeding into heparinized tubes. The blood was subjected to low speed centrifugation (1800 g, 4° C.) and the 10% TCA precipitable radioactivity of the plasma was measured. […] An incision was made in the […] vena cava to clear the perfusate. Within 15 min, the liver, kidneys, spleen, and heart were removed, cleaned, weighed, and counted for ^125I radioactivity. Entire organs were counted with exception of liver, which was counted in pieces. Radioactivity detected per organ or per 1 g of wet tissue was expressed as a percent of the initial total injected radioactivity that was TCA precipitable.
To determine if SEQ ID NO: 1 can associate with human LDL, we attempted to form the complex of ^125I-SEQ ID NO: 1 with isolated human LDL. […] To determine if SEQ ID NQ: 1 influences lipoprotein transport to the liver, we injected the ^125-LDL alone or in complex with SEQ ID NO: 1 into LDLR−/− mice (no LDL-receptor) and A-I−/− mice, which have a functional hepatic LDL-receptor. […] To assess the contribution of LDL-receptors alone, the binding of [^125I-LDL] and [125I-LDL-SEQ ID NO: 1] to the liver of LDLR−/− mice was subtracted from their respective binding to the liver of A-I−/− mice, and data were normalized per gram of wet tissue. […] Influence of SEQ ID NO: 1 on ^125I-LDL binding to kidney, spleen, lung, heart, testis, adrenal, and prostate is shown in FIG. 8. It is noteworthy that no increase in 125I-LDL-SEQ ID NO: 1 complex binding to the heart was observed.

The test system of series [3] is C57BL/6J mice switched on HFC diet. The series can be described thus: Effect of time-released peptides on plasma lipoprotein profile (20 hrs pumps). The series is classed as in vivo, mouse. The conditions noted are these: 20 hrs continuous infusion, pumps 8 ul/hr. Here is the method: Effect of time-released peptides on plasma lipoprotein profile—To determine relatively long-term effect of SEQ ID NO: 1 and its derivatives on plasma lipoprotein profile, the Alzet Mini-Osmotic pumps (220 ul), containing various peptides or PBS, were surgically inserted in canulated Chow fed C57BL/6J mice. The pumps with flow rate equal to 8 μl/hr were used for 20 hrs continuous infusion of peptides. The pumps with flow rate equal to 1 μl/hr were used for 160 hrs continuous infusions of peptides. At the end point (20 or 160 hrs after pumps insertion) mice were sacrificed, and blood was drawn by retroorbital puncture and subjected to low speed centrifugation at 4° C. to obtain the plasma. Bile was immediately removed from gall bladders using insulin syringes, and stored on ice until use.
as §1
To monitor the distribution of phospholipid among the lipoprotein classes, plasma samples were combined within each group (usually 4-6 mice per group), and subjected to agarose gel electrophoresis, which was carried out using the Paragon system (Beckman Coulter) according to manufacturer's instructions, with following staining with Paragon Lipo Stain (Beckman Coulter 655910). Once dried, the gels were scanned on Personal Densitometer SI (Molecular Dynamics) and bands were quantified using ImageQuant™ software (Verssion 5.2).
Impact of SEQ ID NO: 1 on lipoprotein metabolism (20 hrs pumps)—To determine relatively long-term effect of SEQ ID NO: 1 on plasma lipoprotein profile, the Alzet Mini-Osmotic pumps, containing SEQ ID NO: 1 or PBS, were surgically inserted in canculated Chow fed C57BL/6J mice. The pumps flow rate was equal to 8 ul per hr, which provided the delivery amount of SEQ ID NO: 1 per hr as indicated for FIG. 9. Mice were switched on HFC diet immediately after surgery. 20 hrs later plasma samples were obtained, combined within each group (4 to 6 mice), and subjected to FPLC analysis and agarose gel electrophoresis for assessment of cholesterol and phospholipid distribution among the lipoprotein classes. […] The LDL lowering effect was attenuated with increase of SEQ ID NO: 1 concentration. This phenomenon can be explained by self-competition between free and LDL-bound form of SEQ ID NO: 1 for the liver lipoprotein binding sites. In contrast, HDL cholesterol levels were positively correlated with SEQ ID NO: 1 concentration.
Impact of SEQ ID NO: 1 structural derivatives (3 to 13 amino acid residues) on lipoprotein metabolism (20 hrs pumps)—To determine relatively long-term effect on plasma lipoprotein profile, the Alzet Mini-osmotic pumps, containing SEQ ID NO: 1 derivatives or PBS, were surgically inserted in canulated Chow fed C57BL/6J mice. The pumps flow rate was equal to 8 ul per hr, which provided the deliveries of 30-40 μg of peptides per hr. Mice were switched on HFC diet immediately after surgery. […]

In turn, YEFRDRMRTH [SEQ ID NO: 1] had an in vivo half-life of 2 to 3 h. Further, the “duration of effect after single bolus injection” value in series [1] is given as “up to 180 min”. The “impact on plasma HDL-C levels” value in series [1] (single bolus i.v. 100 μg) is reported as “slight but significant decrease”. For the same sequence, the “impact on VLDL level” value in series [1] (single bolus i.v. 100 μg, entire time course) was “no significant impact”. Besides, the “impact on plasma IDL/LDL, low density lipoproteins” value in series [1] (single bolus i.v. 100 μg, 90, 120 and 180 min after injection) is recorded as “Significant lowering; also recorded: strongest impact”. Further, in series [2] (ApoA1−/− mice, compared to 125I-LDL alone), the “plasma clearance of 125I-LDL-SEQ ID NO: 1 complex” value is given as “enhanced plasma clearance”. Besides, the “liver-bound 125I-LDL after complexing with SEQ ID NO: 1” value in series [2] (both mouse genotypes (LDLR−/− and A-I−/−), compared to 125I-LDL alone) is recorded as “significant increase”. In series [2] (compared to 125I-LDL alone, per gram of wet tissue), the “complex binding to the LDL-receptors (liver binding in A-I−/− minus LDLR−/− mice)” value is reported as “substantial increase”. For the same sequence, in series [2] (mouse, in vivo), the “125I-LDL-SEQ ID NO: 1 complex binding to the heart” value was “no increase”. Besides, in series [3], the “plasma HDL cholesterol levels” value is “elevated”, the “plasma levels of HDL phospholipids” value is on record as “elevated” and the “plasma levels of low density lipoproteins” value was “dramatic decrease”.
